pIC50: −log10 of the molar value. Converted amounts (≈) assume the structure as drawn. The source made the active and inactive calls. The calls are words filed in the database; no cut-off is given here.
Assays:
[1] = molecular target: T1, Potassium channel subfamily K member 13 (Homo sapiens) (UniProt Q9HB14); test: Inhibition of human KCNK13 transfected in HEK293 cells assessed as reduction in thallium influx incubated for 15 mins in dark by FLIPR assay relative to control; assay type: cell-based
T1 sequence (whole entry): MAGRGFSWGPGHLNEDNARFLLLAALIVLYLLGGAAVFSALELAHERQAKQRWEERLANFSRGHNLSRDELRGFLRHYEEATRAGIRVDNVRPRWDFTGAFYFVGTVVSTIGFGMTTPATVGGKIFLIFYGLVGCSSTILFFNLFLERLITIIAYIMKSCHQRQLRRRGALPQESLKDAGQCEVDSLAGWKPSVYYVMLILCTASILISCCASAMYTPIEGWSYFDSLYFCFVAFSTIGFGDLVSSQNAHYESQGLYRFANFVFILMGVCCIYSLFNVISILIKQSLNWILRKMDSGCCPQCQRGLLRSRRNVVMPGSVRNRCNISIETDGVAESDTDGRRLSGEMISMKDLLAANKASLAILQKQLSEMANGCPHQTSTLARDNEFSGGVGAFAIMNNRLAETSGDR

[2] = molecular target: NACHT, LRR and PYD domains-containing protein 3 (Mus musculus) (UniProt Q8R4B8); test: Inhibition of NLRP3 inflammasome-mediated IL-1beta release in LPS/ATP-induced C57Bl6 mouse hippocampus at 1 uM pretreated for 1 hr followed by ATP addition measured after 3 hrs by ELISA; assay type: tissue-based; conditions: time 4.0 hrs
[3] = C0 in Sprague-Dawley rat at 0.5 mg/kg, iv; assay type: ADME, organism-based; conditions: in vivo
[4] = Protein binding in mouse brain assessed as unbound fraction by equilibrium dialysis; assay type: ADME, tissue-based
[5] = Oral bioavailability in Cynomolgus monkey at 3 mg/kg; assay type: ADME, organism-based, Macaca fascicularis; conditions: in vivo
[6] = Cmax in Beagle dog at 10 mg/kg, po; assay type: ADME, organism-based, Canis lupus familiaris; conditions: in vivo
[7] = Ratio of unbound drug concentration in brain to plasma C57BL/6 mouse at 10 mg/kg, po measured after 4 hrs by LC-MS/MS analysis; assay type: ADME, organism-based; conditions: brain and plasma, read-out: K(p,uu,brain)
[8] = Cmax in Cynomolgus monkey at 3 mg/kg, po; assay type: ADME, organism-based, Macaca fascicularis; conditions: in vivo
[9] = AUC (0 to infinity) in Sprague-Dawley rat at 3 mg/kg, po; assay type: ADME, organism-based; conditions: in vivo
Mus musculus = organism: Mus musculus; test: Effect on IL-1beta release in LPS-induced C57Bl6 mouse hippocampus upto 5 uM treated for 1 hr by ELISA; assay type: functional, tissue-based
[10] = Clearance in Beagle dog at 1 mg/kg, iv; assay type: ADME, organism-based, Canis lupus familiaris; conditions: in vivo
[11] = Tmax in Cynomolgus monkey at 3 mg/kg, po; assay type: ADME, organism-based, Macaca fascicularis; conditions: in vivo
[12] = Oral bioavailability in Beagle dog at 10 mg/kg; assay type: ADME, organism-based, Canis lupus familiaris; conditions: in vivo
[13] = Clearance in Cynomolgus monkey at 1 mg/kg, iv; assay type: ADME, organism-based, Macaca fascicularis; conditions: in vivo
[14] = AUC (0 to infinity) in Cynomolgus monkey at 3 mg/kg, po; assay type: ADME, organism-based, Macaca fascicularis; conditions: in vivo
KCNK2 (Homo sapiens) = test: Inhibition of recombinant human KCNK2 transfected in HEK293 cells assessed as reduction in thallium influx at 30 uM incubated for 15 mins in dark by FLIPR assay relative to control
[15] = AUC (0 to infinity) in Beagle dog at 1 mg/kg, iv; assay type: ADME, organism-based, Canis lupus familiaris; conditions: in vivo
[16] = Oral bioavailability in Sprague-Dawley rat at 3 mg/kg; assay type: ADME, organism-based; conditions: in vivo
[17] = Tmax in Sprague-Dawley rat at 3 mg/kg, po; assay type: ADME, organism-based; conditions: in vivo
[18] = Clearance in Sprague-Dawley rat at 0.5 mg/kg, iv; assay type: ADME, organism-based; conditions: in vivo
[19] = Kinetic aqueous solubility of compound at pH 7.4; assay type: physicochemical; conditions: buffer, read-out: Kinetic_solubility
[20] = molecular target: T2, Potassium channel subfamily K member 13 (Mus musculus, UniProt Q8R1P5); test: Inhibition of mouse KCNK13 transfected in HEK293 cells; assay type: cell-based
T2 sequence (Q8R1P5 whole entry): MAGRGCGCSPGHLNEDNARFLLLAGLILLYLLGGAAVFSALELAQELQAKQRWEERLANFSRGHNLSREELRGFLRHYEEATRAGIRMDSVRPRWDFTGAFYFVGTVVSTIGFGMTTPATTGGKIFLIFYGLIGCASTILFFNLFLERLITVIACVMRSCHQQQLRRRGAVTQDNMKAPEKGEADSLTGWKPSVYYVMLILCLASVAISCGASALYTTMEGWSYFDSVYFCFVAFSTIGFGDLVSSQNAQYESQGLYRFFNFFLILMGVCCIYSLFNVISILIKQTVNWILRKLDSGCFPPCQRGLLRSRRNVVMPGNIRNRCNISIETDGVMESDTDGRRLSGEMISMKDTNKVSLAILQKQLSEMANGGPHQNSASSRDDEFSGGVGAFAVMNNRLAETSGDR

[21] = Metabolic stability in rat liver microsomes assessed as intrinsic clearance; assay type: ADME, Microsome; conditions: read-out: CLH
[22] = molecular target: T3, Potassium channel subfamily K member 13 (Homo sapiens, UniProt Q9HB14); test: Inhibition of human KCNK13 transfected in HEK293 cells assessed as reduction in thallium influx incubated for 15 mins in dark by FLIPR assay; assay type: cell-based
T3 sequence (Q9HB14 whole entry): T1 sequence (whole entry)

[23] = AUC (0 to infinity) in Sprague-Dawley rat at 0.5 mg/kg, iv; assay type: ADME, organism-based; conditions: in vivo
[24] = Cmax in Sprague-Dawley rat at 3 mg/kg, po; assay type: ADME, organism-based; conditions: in vivo
[25] = Half life in Beagle dog at 1 mg/kg, iv; assay type: ADME, organism-based, Canis lupus familiaris; conditions: in vivo
[26] = Half life in Sprague-Dawley rat at 0.5 mg/kg, iv; assay type: ADME, organism-based; conditions: in vivo
[27] = molecular target: T3, Potassium channel subfamily K member 13; test: Inhibition of human KCNK13 transfected in HEK293 cells; assay type: cell-based
[28] = AUC (0 to infinity) in Cynomolgus monkey at 1 mg/kg, iv; assay type: ADME, organism-based, Macaca fascicularis; conditions: in vivo
[29] = Tmax in Beagle dog at 10 mg/kg, po; assay type: ADME, organism-based, Canis lupus familiaris; conditions: in vivo
[30] = Volume of distribution at steady state in Cynomolgus monkey at 1 mg/kg, iv; assay type: ADME, organism-based, Macaca fascicularis; conditions: in vivo, read-out: Vdss
[31] = Half life in Cynomolgus monkey at 3 mg/kg, po; assay type: ADME, organism-based, Macaca fascicularis; conditions: in vivo
[32] = Protein binding in mouse plasma assessed as unbound fraction by equilibrium dialysis; assay type: ADME, cell-free
HEK293 = test: Inhibition of recombinant human KCNK6 transfected in HEK293 cells assessed as reduction in thallium influx at 30 uM incubated for 15 mins in dark by FLIPR assay relative to control; assay type: cell-based
[33] = molecular target: Voltage-gated inwardly rectifying potassium channel KCNH2 (Homo sapiens, UniProt Q12809); test: Inhibition of hERG; assay type: toxicity
[34] = Unbound drug concentration in C57BL/6 mouse brain at 10 mg/kg, po measured after 4 hrs by LC-MS/MS analysis; assay type: ADME, organism-based; conditions: in vivo
[35] = molecular target: Sodium channel protein type 5 subunit alpha (Homo sapiens, UniProt Q14524); test: Inhibition of NaV1.5 (unknown origin); assay type: toxicity
[36] = molecular target: T4, Potassium channel subfamily K member 13 (Mus musculus) (UniProt Q8R1P5); test: Inhibition of mouse KCNK13 transfected in HEK293 cells assessed as reduction in thallium influx incubated for 15 mins in dark by FLIPR assay relative to control; assay type: cell-based
T4 sequence (whole entry): T2 sequence (Q8R1P5 whole entry)

Chain of NACHT, LRR and PYD domains-containing protein 3 (Mus musculus) (Q8R4B8 whole entry, the tested form may be a part): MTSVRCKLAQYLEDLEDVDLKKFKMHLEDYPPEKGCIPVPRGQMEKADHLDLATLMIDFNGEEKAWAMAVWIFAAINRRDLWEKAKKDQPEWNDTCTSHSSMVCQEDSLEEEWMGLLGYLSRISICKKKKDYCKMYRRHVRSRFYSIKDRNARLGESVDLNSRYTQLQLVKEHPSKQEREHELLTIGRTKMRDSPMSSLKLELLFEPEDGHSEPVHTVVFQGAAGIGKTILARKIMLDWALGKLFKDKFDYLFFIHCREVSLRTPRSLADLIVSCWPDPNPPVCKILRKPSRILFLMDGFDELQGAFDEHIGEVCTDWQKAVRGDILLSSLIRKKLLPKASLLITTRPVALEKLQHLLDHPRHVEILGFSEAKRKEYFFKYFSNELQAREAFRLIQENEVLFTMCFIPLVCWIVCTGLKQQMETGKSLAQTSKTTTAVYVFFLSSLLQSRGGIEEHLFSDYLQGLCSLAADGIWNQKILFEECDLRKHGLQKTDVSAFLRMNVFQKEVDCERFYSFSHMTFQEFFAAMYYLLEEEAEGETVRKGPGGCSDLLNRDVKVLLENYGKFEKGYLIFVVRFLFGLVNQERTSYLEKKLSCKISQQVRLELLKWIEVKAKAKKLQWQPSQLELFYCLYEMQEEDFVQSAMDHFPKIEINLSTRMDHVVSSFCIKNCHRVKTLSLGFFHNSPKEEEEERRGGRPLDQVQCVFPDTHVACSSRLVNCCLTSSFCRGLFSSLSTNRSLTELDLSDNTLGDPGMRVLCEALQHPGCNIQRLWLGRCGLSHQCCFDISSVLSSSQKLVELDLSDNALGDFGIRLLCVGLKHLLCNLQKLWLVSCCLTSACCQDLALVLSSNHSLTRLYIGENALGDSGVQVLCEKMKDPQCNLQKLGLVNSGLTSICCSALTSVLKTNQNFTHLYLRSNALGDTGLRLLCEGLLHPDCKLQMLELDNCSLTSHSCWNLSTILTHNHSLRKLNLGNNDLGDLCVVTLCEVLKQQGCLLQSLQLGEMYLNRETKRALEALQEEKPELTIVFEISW
Chain of Voltage-gated inwardly rectifying potassium channel KCNH2 (Q12809 whole entry): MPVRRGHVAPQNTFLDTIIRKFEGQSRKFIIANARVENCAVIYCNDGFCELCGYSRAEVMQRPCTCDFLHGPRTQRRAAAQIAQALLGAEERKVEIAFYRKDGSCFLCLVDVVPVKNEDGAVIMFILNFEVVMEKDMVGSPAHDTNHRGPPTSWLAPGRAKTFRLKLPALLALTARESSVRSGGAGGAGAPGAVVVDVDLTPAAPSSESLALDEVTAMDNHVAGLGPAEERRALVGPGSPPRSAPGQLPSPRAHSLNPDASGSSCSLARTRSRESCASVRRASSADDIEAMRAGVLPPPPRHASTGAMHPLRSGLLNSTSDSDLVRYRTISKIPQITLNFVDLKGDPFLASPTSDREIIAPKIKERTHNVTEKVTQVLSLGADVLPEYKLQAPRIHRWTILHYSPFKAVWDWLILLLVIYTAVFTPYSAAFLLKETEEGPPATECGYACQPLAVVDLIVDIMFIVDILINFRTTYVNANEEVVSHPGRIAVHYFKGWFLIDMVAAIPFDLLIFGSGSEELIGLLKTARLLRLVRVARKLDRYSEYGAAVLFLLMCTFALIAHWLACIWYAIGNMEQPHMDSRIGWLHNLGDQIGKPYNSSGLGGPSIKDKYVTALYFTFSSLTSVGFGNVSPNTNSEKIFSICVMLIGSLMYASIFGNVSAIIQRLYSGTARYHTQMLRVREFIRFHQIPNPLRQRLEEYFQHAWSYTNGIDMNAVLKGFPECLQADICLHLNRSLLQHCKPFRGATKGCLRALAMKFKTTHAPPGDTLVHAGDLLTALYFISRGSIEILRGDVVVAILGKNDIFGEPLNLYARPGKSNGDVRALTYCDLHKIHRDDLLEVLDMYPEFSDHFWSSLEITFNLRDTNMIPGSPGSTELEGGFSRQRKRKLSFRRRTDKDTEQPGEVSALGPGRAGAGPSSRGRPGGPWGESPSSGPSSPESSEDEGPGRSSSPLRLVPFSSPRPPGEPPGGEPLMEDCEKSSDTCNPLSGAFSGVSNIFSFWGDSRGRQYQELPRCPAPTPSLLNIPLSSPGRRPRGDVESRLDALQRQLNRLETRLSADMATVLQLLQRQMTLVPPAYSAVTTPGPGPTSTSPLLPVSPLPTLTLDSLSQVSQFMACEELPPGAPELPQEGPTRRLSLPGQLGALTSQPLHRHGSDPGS
Chain of Sodium channel protein type 5 subunit alpha (Q14524 whole entry): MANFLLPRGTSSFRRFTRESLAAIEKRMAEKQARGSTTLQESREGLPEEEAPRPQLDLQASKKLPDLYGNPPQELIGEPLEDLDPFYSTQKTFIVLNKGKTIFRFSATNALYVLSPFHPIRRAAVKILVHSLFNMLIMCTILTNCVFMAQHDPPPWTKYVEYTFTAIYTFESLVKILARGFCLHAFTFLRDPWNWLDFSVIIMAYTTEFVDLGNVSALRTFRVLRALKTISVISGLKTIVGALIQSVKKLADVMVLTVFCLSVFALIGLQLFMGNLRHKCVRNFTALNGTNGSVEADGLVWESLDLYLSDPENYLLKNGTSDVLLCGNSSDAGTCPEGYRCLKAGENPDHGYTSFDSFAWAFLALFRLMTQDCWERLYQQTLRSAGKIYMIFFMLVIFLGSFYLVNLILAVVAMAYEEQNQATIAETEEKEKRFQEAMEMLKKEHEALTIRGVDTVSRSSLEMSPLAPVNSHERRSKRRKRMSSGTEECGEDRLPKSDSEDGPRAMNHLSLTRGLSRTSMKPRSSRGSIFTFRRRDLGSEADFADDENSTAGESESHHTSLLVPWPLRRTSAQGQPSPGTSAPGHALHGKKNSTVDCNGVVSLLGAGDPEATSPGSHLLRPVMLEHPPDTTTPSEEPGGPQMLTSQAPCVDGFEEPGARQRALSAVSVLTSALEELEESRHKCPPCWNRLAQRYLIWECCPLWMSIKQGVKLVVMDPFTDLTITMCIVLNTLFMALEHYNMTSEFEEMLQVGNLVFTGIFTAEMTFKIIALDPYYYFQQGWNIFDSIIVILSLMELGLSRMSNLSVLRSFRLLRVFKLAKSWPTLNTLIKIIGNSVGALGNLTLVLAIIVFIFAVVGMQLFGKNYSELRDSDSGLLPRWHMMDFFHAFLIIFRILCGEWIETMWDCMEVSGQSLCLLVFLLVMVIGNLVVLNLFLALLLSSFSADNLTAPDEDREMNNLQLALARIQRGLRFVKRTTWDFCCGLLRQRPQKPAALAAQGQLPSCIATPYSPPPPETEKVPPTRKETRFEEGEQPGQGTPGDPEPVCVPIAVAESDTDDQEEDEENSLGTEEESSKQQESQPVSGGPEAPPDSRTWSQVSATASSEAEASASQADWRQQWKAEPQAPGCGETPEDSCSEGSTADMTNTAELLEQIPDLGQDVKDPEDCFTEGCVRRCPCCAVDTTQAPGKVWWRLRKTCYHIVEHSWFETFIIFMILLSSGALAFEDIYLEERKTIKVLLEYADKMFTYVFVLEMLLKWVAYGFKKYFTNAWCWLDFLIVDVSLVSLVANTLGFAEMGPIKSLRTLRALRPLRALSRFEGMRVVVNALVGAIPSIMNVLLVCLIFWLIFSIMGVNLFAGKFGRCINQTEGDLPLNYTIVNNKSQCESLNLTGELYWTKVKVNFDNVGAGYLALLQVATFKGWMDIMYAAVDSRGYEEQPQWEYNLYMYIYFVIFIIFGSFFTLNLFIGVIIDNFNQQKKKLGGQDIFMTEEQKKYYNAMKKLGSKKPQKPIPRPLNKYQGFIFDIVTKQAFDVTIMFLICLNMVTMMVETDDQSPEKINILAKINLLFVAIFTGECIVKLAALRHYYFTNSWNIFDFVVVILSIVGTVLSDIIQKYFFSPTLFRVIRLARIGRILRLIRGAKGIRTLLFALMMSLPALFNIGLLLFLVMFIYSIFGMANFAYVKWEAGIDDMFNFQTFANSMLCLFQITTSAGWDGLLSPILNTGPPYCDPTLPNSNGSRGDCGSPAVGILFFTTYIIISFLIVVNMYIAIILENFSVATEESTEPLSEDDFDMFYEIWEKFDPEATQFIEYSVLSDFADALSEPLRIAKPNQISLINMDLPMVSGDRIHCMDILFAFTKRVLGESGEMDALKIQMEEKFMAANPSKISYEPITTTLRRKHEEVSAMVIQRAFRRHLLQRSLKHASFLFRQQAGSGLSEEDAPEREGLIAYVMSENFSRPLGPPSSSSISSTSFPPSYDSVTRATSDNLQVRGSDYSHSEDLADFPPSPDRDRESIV

- Imax [1]: 100%
- inhibition [2]: Active
- C0 [3]: 304 ng/mL
- fraction unbound [4]: 0.136
- bioavailability [5]: 24%
- Cmax [6]: 241 ng/mL
- Kp uu at 4 h [7]: 0.66
- Cmax [8]: 165 ng/mL
- AUC(0-inf) [9]: 1240 ng·h/mL
- clearance [10]: 38 mL/min/kg
- Tmax [11]: 1 h
- F [12]: 41%
- clearance [13]: 22 mL/min/kg
- AUC(0-inf) [14]: 546 ng·h/mL
- Imax (KCNK2 (Homo sapiens)): 17.4%
- AUC [15]: 438 ng·h/mL
- bioavailability [16]: 87%
- Tmax [17]: 1 h
- clearance [18]: 35 mL/min/kg
- solubility kinetic [19]: 94 µM (≈ 29.3 µg/mL)
- pIC50 [20]: 7.55
- microsomal CLint [21]: 9.9 µL/min/mg
- pIC50 [22]: 7.39
- AUC(0-inf) [23]: 222 ng·h/mL
- Cmax [24]: 468 ng/mL
- half-life [25]: 0.5 h
- half-life [26]: 1 h
- pIC50 [27]: 7.39
- AUC(0-inf) [28]: 782 ng·h/mL
- Tmax [29]: 1.25 h
- Vd [30]: 1.45 L/kg
- half-life [31]: 1.9 h
- fraction unbound [32]: 0.173
- Cp(f) [34]: 248 nM
- Imax [36]: 97%
Compound: Nc1nonc1-c1nc2cccc(F)c2n1Cc1cccnn1
- Activity (Mus musculus): inactive
- Imax (HEK293): 10.7%
- inhibition (INH) [33]: Not Active
- inhibition (INH) [35]: Not Active
